Experimental data from US20110009350A1, “Oil-in-Water Formulation of Avermectins” (priority 2005, published 2011).

Columns and labels:
[1] = Stability of Abamectin in water at various pH-values and temperatures, kept in the dark, HPLC; format: physicochemical
Description: The stability of Abamectin in water at various pH-values and temperatures was determined. 194.4 mg of Abamectin was dissolved in 10 ml methanol and 1 ml of the solution transferred to 100 ml of de-mineralised water and a part of this was transferred to a buffer solution. The sample was kept in the dark and the solution analysed using a HPLC.

[2] = Stability of Abamectin in water exposed to light (5000-6000 lux) at 25° C., HPLC; format: physicochemical
Description: The stability of Abamectin in water exposed to light at various pH-values was determined. 194.4 mg of Abamectin was dissolved in 10 ml methanol and 1 ml of the solution transferred to 100 ml of demineralised water and a part of this transferred to a buffer solution. The solution was exposed to light (5000-6000 lux) at 25° C. and analysed using a HPLC.

Substance: Abamectin
- Abamectin concentration (ppm) ([1]; 25° C., 7 days, pH 4.0, dark): 3.130 ppm
- Abamectin concentration (ppm) ([1]; 25° C., 7 days, pH 7.0, dark): 3.188 ppm
- Abamectin concentration (ppm) ([1]; 25° C., 7 days, pH 9.0, dark): 3.005 ppm
- Abamectin concentration (ppm) ([1]; 25° C., 14 days, pH 4.0, dark): 2.782 ppm
- Abamectin concentration (ppm) ([1]; 25° C., 14 days, pH 7.0, dark): 3.040 ppm
- Abamectin concentration (ppm) ([1]; 25° C., 14 days, pH 9.0, dark): 2.596 ppm
- Abamectin concentration (ppm) ([1]; 25° C., 21 days, pH 4.0, dark): 2.566 ppm
- Abamectin concentration (ppm) ([1]; 25° C., 21 days, pH 7.0, dark): 2.829 ppm
- Abamectin concentration (ppm) ([1]; 25° C., 21 days, pH 9.0, dark): 2.380 ppm
- Abamectin concentration (ppm) ([1]; 25° C., 28 days, pH 4.0, dark): 2.524 ppm
- Abamectin concentration (ppm) ([1]; 25° C., 28 days, pH 7.0, dark): 2.676 ppm
- Abamectin concentration (ppm) ([1]; 25° C., 28 days, pH 9.0, dark): 2.287 ppm
- Abamectin concentration (ppm) ([1]; 25° C., Initial, pH 4.0, dark): 3.495 ppm
- Abamectin concentration (ppm) ([1]; 25° C., Initial, pH 7.0, dark): 3.327 ppm
- Abamectin concentration (ppm) ([1]; 25° C., Initial, pH 9.0, dark): 3.555 ppm
- Abamectin concentration (ppm) ([1]; 50° C., 7 days, pH 4.0, dark): 1.054 ppm
- Abamectin concentration (ppm) ([1]; 50° C., 7 days, pH 7.0, dark): 2.952 ppm
- Abamectin concentration (ppm) ([1]; 50° C., 7 days, pH 9.0, dark): 1.265 ppm
- Abamectin concentration (ppm) ([1]; 50° C., 14 days, pH 4.0, dark): 0.383 ppm
- Abamectin concentration (ppm) ([1]; 50° C., 14 days, pH 7.0, dark): 2.780 ppm
- Abamectin concentration (ppm) ([1]; 50° C., 14 days, pH 9.0, dark): 0.519 ppm
- Abamectin concentration (ppm) ([1]; 50° C., 21 days, pH 4.0, dark): 0.123 ppm
- Abamectin concentration (ppm) ([1]; 50° C., 21 days, pH 7.0, dark): 2.194 ppm
- Abamectin concentration (ppm) ([1]; 50° C., 21 days, pH 9.0, dark): 0.205 ppm
- Abamectin concentration (ppm) ([1]; 50° C., 28 days, pH 4.0, dark): 0.0609 ppm
- Abamectin concentration (ppm) ([1]; 50° C., 28 days, pH 7.0, dark): 1.949 ppm
- Abamectin concentration (ppm) ([1]; 50° C., 28 days, pH 9.0, dark): 0.0628 ppm
- Abamectin concentration (ppm) ([1]; 50° C., Initial, pH 4.0, dark): 3.495 ppm
- Abamectin concentration (ppm) ([1]; 50° C., Initial, pH 7.0, dark): 3.327 ppm
- Abamectin concentration (ppm) ([1]; 50° C., Initial, pH 9.0, dark): 3.555 ppm
- Abamectin concentration (ppm) ([2]; 7 days, pH 4.0): 2.923 ppm
- Abamectin concentration (ppm) ([2]; 7 days, pH 7.0): 2.941 ppm
- Abamectin concentration (ppm) ([2]; 7 days, pH 9.0): 3.163 ppm
- Abamectin concentration (ppm) ([2]; 14 days, pH 4.0): 2.332 ppm
- Abamectin concentration (ppm) ([2]; 14 days, pH 7.0): 2.529 ppm
- Abamectin concentration (ppm) ([2]; 14 days, pH 9.0): 2.810 ppm
- Abamectin concentration (ppm) ([2]; 21 days, pH 4.0): 1.961 ppm
- Abamectin concentration (ppm) ([2]; 21 days, pH 7.0): 2.223 ppm
- Abamectin concentration (ppm) ([2]; 21 days, pH 9.0): 2.360 ppm
- Abamectin concentration (ppm) ([2]; 28 days, pH 4.0): 1.666 ppm
- Abamectin concentration (ppm) ([2]; 28 days, pH 7.0): 2.034 ppm
- Abamectin concentration (ppm) ([2]; 28 days, pH 9.0): 2.173 ppm
- Abamectin concentration (ppm) ([2]; Initial, pH 4.0): 3.495 ppm
- Abamectin concentration (ppm) ([2]; Initial, pH 7.0): 3.327 ppm
- Abamectin concentration (ppm) ([2]; Initial, pH 9.0): 3.555 ppm
